Reference: US7250442B2, “Dihydroindol-2-one derivatives as steroid hormone nuclear receptor modulators” (Eli Lilly and Company, priority 2003, dated 2007)

biological target: T1, human MR (Homo sapiens, UniProt P08235); assay: Mineralocorticoid Receptor Binding Assay ([3H]-aldosterone displacement); details: full length human MR expressed in Sf9 cells, 0.5 nM [3H]-aldosterone
T1 construct: The full length human MR gene is cloned from a human kidney or human brain cDNA library; made in house; host or cells: Sf9 insect cells (baculovirus, pAcHLT transfer vector)
T1 sequence (P08235 1-984): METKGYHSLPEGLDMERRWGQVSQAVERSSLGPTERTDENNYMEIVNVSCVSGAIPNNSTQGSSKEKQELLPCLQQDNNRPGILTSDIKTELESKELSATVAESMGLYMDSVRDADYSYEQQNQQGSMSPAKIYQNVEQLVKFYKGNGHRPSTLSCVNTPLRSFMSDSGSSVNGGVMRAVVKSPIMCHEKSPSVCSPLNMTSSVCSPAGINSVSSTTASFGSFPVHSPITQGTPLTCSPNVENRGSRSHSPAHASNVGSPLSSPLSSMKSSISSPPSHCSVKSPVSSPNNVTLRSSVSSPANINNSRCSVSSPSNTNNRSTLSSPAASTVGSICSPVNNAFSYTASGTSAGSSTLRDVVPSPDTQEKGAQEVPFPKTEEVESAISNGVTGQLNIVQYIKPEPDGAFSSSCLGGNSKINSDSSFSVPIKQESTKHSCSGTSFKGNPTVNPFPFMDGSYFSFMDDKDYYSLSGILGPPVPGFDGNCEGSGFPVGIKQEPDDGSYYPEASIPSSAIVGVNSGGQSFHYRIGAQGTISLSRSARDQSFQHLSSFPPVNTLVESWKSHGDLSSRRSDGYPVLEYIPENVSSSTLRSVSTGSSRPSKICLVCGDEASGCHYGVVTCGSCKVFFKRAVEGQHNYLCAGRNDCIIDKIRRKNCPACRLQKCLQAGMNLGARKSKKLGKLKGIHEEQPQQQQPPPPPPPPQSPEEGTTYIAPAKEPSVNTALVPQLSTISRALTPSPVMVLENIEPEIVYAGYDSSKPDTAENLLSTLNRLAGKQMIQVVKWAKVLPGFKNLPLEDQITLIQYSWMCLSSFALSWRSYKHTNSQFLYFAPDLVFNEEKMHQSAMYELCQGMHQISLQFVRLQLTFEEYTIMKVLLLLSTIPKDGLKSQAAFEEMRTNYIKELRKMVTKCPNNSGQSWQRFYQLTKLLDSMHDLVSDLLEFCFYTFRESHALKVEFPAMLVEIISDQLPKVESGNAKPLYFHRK
Summary of the method: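 Full-length human MR expressed in Sf9 cells; lysate (20-25 μg protein) incubated with 0.5 nM [3H]-aldosterone and test compound in molybdate/Tris/phosphate/glycerol buffer pH 7.5, 16 h at 4 °C. Bound ligand measured by filtration and scintillation counting; IC50 converted to Ki via Cheng-Prusoff.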

Structure (SMILES) | Ki [nM]
COc1cccc(N2C(=O)C(c3cc(C)c(O)c(C)c3)(c3cc(C)c(O)c(C)c3)c3ccccc32)c1 [Example 134, 3,3-Bis-(4-hydroxy-3,5-dimethyl-phenyl)-1-(3-methoxy-phenyl)-1,3-dihydro-indol-2-one] | ≤ 500
Cc1cc(C2(c3cc(C)c(O)c(C)c3)C(=O)N(Cc3ccc(Br)cc3F)c3ccccc32)cc(C)c1O [Example 81, 1-(4-Bromo-2-fluoro-benzyl)-3,3-bis-(4-hydroxy-3,5-dimethyl-phenyl)-1,3-dihydro-indol-2-one] | ≤ 500
COc1ccc2c(c1)C(c1cc(C)c(O)c(C)c1)(c1cc(C)c(O)c(C)c1)C(=O)N2Cc1ccccc1 [Example 16, 1-Benzyl-3,3-bis-(4-hydroxy-3,5-dimethyl-phenyl)-5-methoxy-1,3-dihydro-indol-2-one] | ≤ 500
Cc1nc(CN2C(=O)C(c3cc(C)c(O)c(C)c3)(c3cc(C)c(O)c(C)c3)c3ccccc32)cs1 [Example 89, 3,3-Bis-(4-hydroxy-3,5-dimethyl-phenyl)-1-(2-methyl-thiazol-4-ylmethyl)-1,3-dihydro-indol-2-one] | ≤ 500
Cc1cc(C2(c3cc(C)c(O)c(C)c3)C(=O)N(CC3CC3)c3ccccc32)cc(C)c1O [Example 105, 1-Cyclopropylmethyl-3,3-bis-(4-hydroxy-3,5-dimethyl-phenyl)-1,3-dihydro-indol-2-one] | ≤ 500
COc1ccc(N2C(=O)C(c3cc(C)c(O)c(C)c3)(c3cc(C)c(O)c(C)c3)c3ccccc32)cc1 [Example 128, 3,3-Bis-(4-hydroxy-3,5-dimethyl-phenyl)-1-(4-methoxy-phenyl)-1,3-dihydro-indol-2-one] | ≤ 500
Cc1cc(C2(c3ccc(O)cc3)C(=O)N(Cc3ccccc3)c3ccccc32)cc(C)c1O (centres unmarked) [Example 29, 1-Benzyl-3-(4-hydroxy-3,5-dimethyl-phenyl)-3-(4-hydroxy-phenyl)-1,3-dihydro-indol-2-one] | ≤ 500
Cc1cc(C2(c3cc(C)c(O)c(C)c3)C(=O)N(Cc3ccc(F)cc3)c3ccccc32)cc(C)c1O [Example 2] | ≤ 500
Cc1cc(C2(c3cc(C)c(O)c(C)c3)C(=O)N(Cc3cc(C(F)(F)F)ccc3F)c3ccccc32)cc(C)c1O [Example 112, 1-(2-Fluoro-5-trifluoromethyl-benzyl)-3,3-bis-(4-hydroxy-3,5-dimethyl-phenyl)-1,3-dihydro-indol-2-one] | ≤ 500
Cc1cc(C2(c3cc(C)c(O)c(C)c3)C(=O)N(c3cccnc3)c3ccccc32)cc(C)c1O [Example 135, 3,3-Bis-(4-hydroxy-3,5-dimethyl-phenyl)-1-pyridin-3-yl-1,3-dihydro-indol-2-one] | ≤ 500
Cc1cc(C2(c3cc(C)c(O)c(C)c3)C(=O)N(Cc3ccc(O)cc3)c3ccccc32)cc(C)c1O [Example 88, 1-(4-Hydroxy-benzyl)-3,3-bis-(4-hydroxy-3,5-dimethyl-phenyl)-1,3-dihydro-indol-2-one] | ≤ 500
COc1ccccc1C(=O)CN1C(=O)C(c2cc(C)c(O)c(C)c2)(c2cc(C)c(O)c(C)c2)c2ccccc21 [Example 44, 3,3-Bis-(4-hydroxy-3,5-dimethyl-phenyl)-1-[2-(2-methoxy-phenyl)-2-oxo-ethyl]-1,3-dihydro-indol-2-one] | ≤ 500
Cc1cc(C2(c3cc(C)c(O)c(C)c3)C(=O)N(Cc3cccc(N)c3)c3ccccc32)cc(C)c1O [Example 118, 1-(3-Amino-benzyl)-3,3-bis-(4-hydroxy-3,5-dimethyl-phenyl)-1,3-dihydro-indol-2-one] | ≤ 500
COc1cccc(C(=O)CN2C(=O)C(c3cc(C)c(O)c(C)c3)(c3cc(C)c(O)c(C)c3)c3ccccc32)c1 [Example 45, 3,3-Bis-(4-hydroxy-3,5-dimethyl-phenyl)-1-[2-(3-methoxy-phenyl)-2-oxo-ethyl]-1,3-dihydro-indol-2-one] | ≤ 500
COc1ccc(OC)c(C(=O)CN2C(=O)C(c3cc(C)c(O)c(C)c3)(c3cc(C)c(O)c(C)c3)c3ccccc32)c1 [Example 49, 1-[2-(2,5-Dimethoxy-phenyl)-2-oxo-ethyl]-3,3-bis-(4-hydroxy-3,5-dimethyl-phenyl)-1,3-dihydro-indol-2-one] | ≤ 500
Cc1cc(C2(c3cc(C)c(O)c(C)c3)C(=O)N(Cc3ccc(C(F)(F)F)cc3)c3ccccc32)cc(C)c1O [Example 57, 3,3-Bis-(4-hydroxy-3,5-dimethyl-phenyl)-1-(4-trifluoromethyl-benzyl)-1,3-dihydro-indol-2-one] | ≤ 500
Cc1cc(C2(c3cc(C)c(O)c(C)c3)C(=O)N(CCc3scnc3C)c3ccccc32)cc(C)c1O [Example 121, 3,3-Bis-(4-hydroxy-3,5-dimethyl-phenyl)-1-[2-(4-methyl-thiazol-5-yl)-ethyl]-1,3-dihydro-indol-2-one] | ≤ 500
Cc1cc(C2(c3cc(C)c(O)c(C)c3)C(=O)N(Cc3ccccn3)c3ccccc32)cc(C)c1O [Example 100, 3,3-Bis-(4-hydroxy-3,5-dimethyl-phenyl)-1-pyridin-2-ylmethyl-1,3-dihydro-indol-2-one] | ≤ 500
Cc1cc(C2(c3cc(C)c(O)c(C)c3)C(=O)N(Cc3ccc(Cl)c(Cl)c3)c3ccccc32)cc(C)c1O [Example 52, 1-(3,4-Dichloro-benzyl)-3,3-bis-(4-hydroxy-3,5-dimethyl-phenyl)-1,3-dihydro-indol-2-one] | ≤ 500
COc1ccc(C(=O)CN2C(=O)C(c3cc(C)c(O)c(C)c3)(c3cc(C)c(O)c(C)c3)c3ccccc32)cc1 [Example 46, 3,3-Bis-(4-hydroxy-3,5-dimethyl-phenyl)-1-[2-(4-methoxy-phenyl)-2-oxo-ethyl]-1,3-dihydro-indol-2-one] | ≤ 500
Cc1cc(C2(c3cc(C)c(O)c(C)c3)C(=O)N(C3CCCC3)c3ccccc32)cc(C)c1O [Example 114, 1-Cyclopentyl-3,3-bis-(4-hydroxy-3,5-dimethyl-phenyl)-1,3-dihydro-indol-2-one] | ≤ 500
Cc1cc(C2(c3cc(C)c(O)c(C)c3)C(=O)N(Cc3ccc(N)cc3)c3ccccc32)cc(C)c1O [Example 117, 11-(4-Amino-benzyl)-3,3-bis-(4-hydroxy-3,5-dimethyl-phenyl)-1,3-dihydro-indol-2-one] | ≤ 500
Cc1cc(C2(c3cc(C)c(O)c(C)c3)C(=O)N(Cc3cccc4ccccc34)c3ccccc32)cc(C)c1O [Example 10, 3,3-Bis-(4-hydroxy-3,5-dimethyl-phenyl)-1-naphthalen-1-ylmethyl-1,3-dihydro-indol-2-one] | ≤ 500
Cc1cc(C2(c3cc(C)c(O)c(C)c3)C(=O)N(Cc3ccccc3C#N)c3ccccc32)cc(C)c1O [Example 51, 2-[3,3-Bis-(4-hydroxy-3,5-dimethyl-phenyl)-2-oxo-2,3-dihydro-indol-1-ylmethyl]-benzonitrile] | ≤ 500
Cc1cc(C2(c3cc(C)c(O)c(C)c3)C(=O)N(Cc3ccc(C(C)(C)C)cc3)c3ccccc32)cc(C)c1O [Example 7, 1-(4-tert-Butyl-benzyl)-3,3-bis-(4-hydroxy-3,5-dimethyl-phenyl)-1,3-dihydro-indol-2-one] | ≤ 500
Cc1cc(C2(c3cc(C)c(O)c(C)c3)C(=O)N(c3cccc(Br)c3)c3ccccc32)cc(C)c1O [Example 139, 1-(3-Bromo-phenyl)-3,3-bis-(4-hydroxy-3,5-dimethyl-phenyl)-1,3-dihydro-indol-2-one] | ≤ 500
